# Test results: patent US20090324581A1, “HETEROARYLAMIDE LOWER CARBOXYLIC ACID DERIVATIVE” (Daiichi Sankyo company Limited, priority 2006, published 2009)
# Where a name gives a salt, the structure may show the parent alone.
# How the values were obtained:
# human S1P1 (EDG-1) = molecular target: T1, human S1P1 (EDG-1) (Homo sapiens, UniProt P21453); experiment: Intracellular calcium flux assay (agonist activity against S1P1 (EDG-1) receptor); assay type: cell-based; settings: CHO cells expressing Gqi5 and human S1P1 (EDG-1), intracellular calcium change
# T1 construct: expressed in transfected cells; host or cells: CHO-K1 cells stably expressing HA-Gqi5
# Source text: The HA-Gqi5 expression plasmid, which had been produced in (2) above, was integrated into CHO-K1 cells by use of a Fugene 6 reagent (product of Roche Diagnostics K.K.), and cells of interest were selected by use of hygromycin. A CHO cell expressing HA-Gqi5 was selected through western blotting employing an anti-HA antibody, and the selected cells were cloned twice.
# By use of a human S1P1 (EDG-1) cDNA clone (open biosystems, cDNA collection #4071217) as a template, human S1P1 (EDG-1) DNA was produced through PCR. This PCR product was integrated into pUC118. By means of a site-directed mutagenesis kit (product of STRATAGENE), a plasmid into which DNA having a target sequence (The Journal of Biological Chemistry Vol. 265, No. 16, 9308-9313, 1990) had been integrated was produced.
# A human S1P1 (EDG-1) gene (The Journal of Biological Chemistry Vol. 265, No. 16, 9308-9313, 1990) integrated into pUC118 was digested by use of restriction enzymes, and the cut fragment was purified. The fragment was ligated with an expression plasmid pcDNA3.1/mycHisA (product of Invitrogen). The ligation mixture was integrated into E. Coli DH5α, and a positive clone was selected, whereby a S1P1 (EDG-1) expression plasmid was produced.
# A S1P1 (EDG-1) expression plasmid was integrated into the CHO cells expressing HA-Gqi5, which had been produced in (3) above, by use of a Fugene 6 reagent (product of Roche Diagnostics K.K.). […] The selected cells were cloned twice.
# CHO cells expressing Gqi5 protein, to which human S1P1 (EDG-1) had been introduced and which had been produced in (6) above, were seeded on a 96-well black plate with a transparent bottom surface (2.5×10^4 cell/well) and cultured overnight. The culture was washed once with a serum-free medium, and an assay buffer (calcium assay kit, product of Molecular Devices, 100 μL) containing 2.5 mM probenicid and 0.25% fatty acid-free BSA was added to the washed cells. The mixture was allowed to react at 37° C. for one hour under […] CO2. Separately, each test compound was diluted so as to attain a concentration five times the final test concentration. The diluted liquid (25 μL) was added to each well, and change in intracellular calcium concentration was measured by means of a FLEXstation II (product of Molecular Devices). The change was determined as the difference between the minimum intracellular calcium level and the peak (maximum) value thereof. A sigmoid curve was obtained from the measurements, and an EC50 value was calculated from the curve so as to evaluate agonist activity against an S1P1 (EDG-1) receptor.
# [1] = system: lymphocytes in peripheral blood; experiment: Decrease in peripheral blood lymphocyte count of mice after administration of each compound; assay type: in vivo; settings: four hours after administration, peripheral blood lymphocyte count vs solvent group; for T/C(%) (3 mg/kg): 3 mg/kg peroral; for T/C(%) (10 mg/kg): 10 mg/kg peroral
# Procedure: 2. In Vivo Evaluation of Test Substances (Decrease in Peripheral Blood Lymphocyte Count of Mice after Administration of Each Compound):
# There has already been reported that lymphocytes in peripheral blood of mice decrease after administration of an S1P receptor agonist [SCIENCE, 296, 346-349 (2002)]. According to the evaluation method disclosed in the document, test compounds were evaluated.
# Four hours after peroral administration, blood (0.5 mL) was collected from each mouse through the posterior vena cava under anesthesia with ether by use of EDTA as an anti-coagulant. The number of lymphocytes in peripheral blood was determined by means of a general hematological tester ADVIA 120 (Bayer Medical). The pharmacological action of each test drug was evaluated as T/C (%) ratio, which is a ratio of average peripheral blood lymphocyte count of a test drug-administered group to that of the solvent-administered group (control group).
# (§1) T/C(%)=(average peripheral blood lymphocyte count of a test drug-administered group)/(average peripheral blood lymphocyte count of the solvent-administered group)×100
# [2] = system: lymphocytes in peripheral blood; experiment: Decrease in peripheral blood lymphocyte count of rats after administration of each compound; assay type: in vivo; settings: rats (female Lewis), four hours after administration, peripheral blood lymphocyte count vs solvent group; for T/C(%) (3 mg/kg): 3 mg/kg peroral; for T/C(%) (10 mg/kg): 10 mg/kg peroral
# Procedure: 3. In Vivo Evaluation of Test Substances (Decrease in Peripheral Blood Lymphocyte Count of Rats after Administration of Each Compound):
# The effect of administration of an S1P receptor agonist on decrease in peripheral blood lymphocyte counts of rats (female Lewis) was evaluated.
# Four hours after peroral administration, blood (0.5 mL) was collected from each rat through the cervical vein under anesthesia with ether by use of EDTA as an anti-coagulant. The number of lymphocytes in peripheral blood and blood cell fractions were determined by means of a general hematological tester ADVIA 120 (Bayer Medical). The action of each test drug on reducing peripheral blood lymphocyte count was evaluated as T/C (%) ratio at the time of blood collection, which is a ratio of average peripheral blood lymphocyte count of a test drug-administered group to that of the solvent-administered group (control group).
# as §1
# [3] = system: production of cytokines such as IL-2; settings: in vitro; cited from earlier work
# [4] = clinically tested in transplant and multiple sclerosis; cited from earlier work
# blood lymphocytes = settings: phosphorylated in the living body, acts as S1P receptor agonist; cited from earlier work
# T1 sequence (P21453 whole entry): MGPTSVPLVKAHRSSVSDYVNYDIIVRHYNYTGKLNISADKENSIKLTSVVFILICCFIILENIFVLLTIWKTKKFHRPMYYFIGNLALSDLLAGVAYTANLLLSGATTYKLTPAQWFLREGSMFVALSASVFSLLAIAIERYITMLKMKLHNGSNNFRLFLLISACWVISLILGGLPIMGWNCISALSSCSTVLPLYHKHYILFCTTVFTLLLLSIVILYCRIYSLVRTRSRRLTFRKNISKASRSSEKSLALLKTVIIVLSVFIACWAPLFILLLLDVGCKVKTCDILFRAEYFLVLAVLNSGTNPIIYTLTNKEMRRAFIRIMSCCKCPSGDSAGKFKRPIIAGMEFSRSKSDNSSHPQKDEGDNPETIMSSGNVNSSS
SMILES,EC50 (human S1P1 (EDG-1); Table 2),T/C(%) (3 mg/kg) [1],T/C(%) (10 mg/kg) [1],T/C(%) (3 mg/kg) [2],T/C(%) (10 mg/kg) [2],EC50 (human S1P1 (EDG-1); Table 4),further results
"N[C@H](CC(=O)O)C(=O)N1CCc2cc(OCc3cc(-c4ccccc4)c(C(F)(F)F)s3)ccc21 [Example 10, (R)-3-Amino-4-oxo-4-[5-[(4-phenyl-5-trifluoromethyl-2-thienyl)methoxy]indolin-1-yl]butyric acid]",1.3 nM,21.6%,16.3%,–,–,–,–
"N[C@H](CC(=O)O)C(=O)N1CCc2cc(OCc3ccc(-c4ccccc4)c(C(F)(F)F)c3)ccc21 [Example 14, (R)-3-Amino-4-oxo-4-[5-[(2-trifluoromethyl-4-biphenyl)methoxy]indolin-1-yl]butyric acid]",4.4 nM,17.0%,11.1%,–,–,–,–
"O=C(O)CCNCC(=O)N1CCc2cc(OCc3cc(-c4ccccc4)c(C(F)(F)F)s3)ccc21 [Example 29, 3-[N-[2-Oxo-2-[5-[(4-phenyl-5-trifluoromethyl-2-thienyl)methoxy]indolin-1-yl]ethyl]amino]propionic acid]",2.4 nM,15.5%,13.9%,–,–,–,–
"CN(CCC(=O)O)CC(=O)N1CCc2cc(OCc3cc(-c4ccccc4)c(C(F)(F)F)s3)ccc21 [Example 30, 3-[N-Methyl-N-[2-oxo-2-[5-[(4-phenyl-5-trifluoromethyl-2-thienyl)methoxy]indolin-1-yl]ethyl]amino]propionic acid]",2.9 nM,21.7%,11.1%,–,–,–,–
"O=C(O)CCNCC(=O)N1CCc2cc(OCc3ccc(-c4ccccc4)c(C(F)(F)F)c3)ccc21 [Example 31, 3-[N-[2-Oxo-2-[5-[(2-trifluoromethyl-4-biphenyl)methoxy]indolin-1-yl]ethyl]amino]propionic acid]",6.3 nM,30.8%,19.8%,–,–,–,–
"CN[C@H](CC(=O)O)C(=O)N1CCc2cc(OCc3ccc(C4CCCCC4)cc3C(F)(F)F)ccc21 [Example 43, 4-[5-[[4-(Cyclohexyl)-2-(trifluoromethyl)phenyl]methoxy]indolin-1-yl]-(3R)-(methylamino)-4-oxobutyric acid]",–,–,–,34.9%,25.7%,8.7 nM,–
"CC(C)c1ccc(COc2ccc3c(c2)CCN3C(=O)CNCCC(=O)O)cc1OC(F)(F)F [Example 97, 3-[N-[2-[5-(4-Isopropyl-3-trifluoromethoxybenzyloxy)indolin-1-yl]-2-oxoethyl]amino]propionic acid hydrochloride]",–,–,–,22.2%,17.9%,4.7 nM,–
"O=C(O)[C@@H]1CCCN(CC(=O)N2CCc3cc(OCc4cc(-c5ccccc5)c(C(F)(F)F)s4)ccc32)C1 [Example 119, 1-[2-Oxo-2-[5-[(4-phenyl-5-trifluoromethyl-2-thienyl)methoxy]indolin-1-yl]ethyl]piperidine-(3R)-carboxylic acid]",–,–,–,28.7%,20.7%,6.2 nM,–
"CN[C@H](CC(=O)O)C(=O)N1CCc2c1ccc(OCc1ccc(C3CCCC3)c(C(F)(F)F)c1)c2C [Example 129, 4-[5-[(4-Cyclopentyl-3-trifluoromethylphenyl)methoxy]-4-methylindolin-1-yl]-(3R)—(N-methylamino)-4-oxobutyric acid]",–,–,–,18.2%,17.7%,4.5 nM,–
"CCCCCCCCc1ccc(CCC(N)(CO)CO)cc1.Cl [FTY720, 2-amino-2-[2-(4-octylphenyl)ethyl]-1,3-propanediol hydrochloride]",–,–,–,–,–,–,inhibitory action on production of cytokines such as IL-2 [3]: no inhibitory action; adverse side effect [4]: bradycardia is reported as an adverse side effect; reduction in blood lymphocytes (blood lymphocytes): induce reduction in blood lymphocytes
